Positions of bridges follow the written chain, without caps; N, C: chain ends. Non-standard residues stand in square brackets, D forms with d. Residues, ends and D or L forms follow the SMILES beside them. Chains are numbered I, II in the order given.
Columns and labels:
CXCR4 Y255A = biological target: T1, CXCR4 Y255A (Homo sapiens, UniProt P61073, Y255A); assay: Competitive binding to CXCR4 mutant Y255A (12G5, CHO cells); details: TM6, class of reduction vs wild-type CXCR4, 12G5 competition, averages of at least three independent experiments
T1 construct: expressed in transfected cells
Description: (§1) Plasmid pcDNA3-CXCR4 and mutated pcDNA3-CXCR4 were extracted and transfected into CHO cells using Lipofectamine 2000 according to the manufacturer’s guidelines. The selective medium containing G418 at a concentration of 1.2 mg/ml was applied to isolate stably transfected cells. CHO cells expressing wild-type CXCR4 and mutant CXCR4 were obtained using fluorescence-activated cell sorting (FACS).
(§2) All of the CXCR4 mutants were prepared using PCR technology. Briefly, pairs of asymmetrical primers containing the desired amino acid mutations (Supplementary Tables S1 and S2), each complementary to opposite strands of the pcDNA3–CXCR4, were designed for amplification by Q5® High-Fidelity DNA polymerase and the generation of mutated constructs. The methylated pcDNA3–CXCR4 templates were digested by DpnI. The mutated pcDNA3–CXCR4 was transformed into competent E. coli TOP10 for long-term storage and amplification.
(§3) The procedure for the CXCR4 competitive binding experiments was published previously. Briefly, CXCR4 antibody 12G5 (250 ng/ml) was incubated with 5 × 10^5 cells and varying concentrations of unlabeled compounds in a final volume of 100 μl of assay buffer (PBS with 0.5% BSA and 0.05% NaN3) in 96-well plates for 40 min on ice, after being washed with assay buffer once. The cells were incubated with FITC-conjugated second antibody IgG for 30 min on ice, then washed with assay buffer three times. The fluorescence intensity was measured for excitation at 485 nm and emission at 535 nm using multimode plate reader (PerkinElmer). The IC50 values were calculated using graphpad Prism 7. Experiments were performed at least three times.

CXCR4 W195A = biological target: T2, CXCR4 W195A (Homo sapiens, UniProt P61073, W195A); assay: Competitive binding to CXCR4 mutant W195A (12G5, CHO cells); details: TM4, class of reduction vs wild-type CXCR4, 12G5 competition, averages of at least three independent experiments
T2 construct: expressed in transfected cells
Description: as §1, §2, §3

CXCR4 [1] = biological target: T3, CXCR4 (Homo sapiens, UniProt P61073); assay: Competitive CXCR4 binding assay (12G5 antibody probe), wild-type CXCR4 transfected CHO cells; parameters: expressed in transfected cells; Competitive receptor binding activity, wild-type CXCR4 (WT): key to the marks not given beside the values; details: class relative to wild-type; 12G5 competition, stably transfected CHO cells; averages of at least three independent experiments
Description: The CXCR4-specific antibody, 12G5 was used as a probe for the competitive CXCR4 binding assay to evaluate the binding activity of CXCR4 antagonists.
Figure 1 Competitive CXCR4 binding curves of eleven CXCR4 antagonists The CXCR4 transfected CHO cells were incubated with different concentrations of antagonists and 250 ng/ml 12G5 antibody. The CXCR4-binding 12G5 antibody was recognized by FITC-conjugated anti-IgG second antibody. The cells treated with only second antibody were used as a negative control (0%) while cells treated with both 12G5 antibody and second antibody were used as a positive control (100%). Cells treated with CXCR4 antagonists were calculated in percentage relative to the positive and negative controls. The data were averages of at least three independent experiments and shown as mean ± standard error of the mean (S.E.M.).
as §3

CXCR4 [2] = biological target: T3, CXCR4; assay: SDF-1α-induced calcium mobilization assay in SupT1 cells (Fluo-4); type: cell-based; parameters: host or cells: SupT1 cells; details: 50 nM SDF-1α
Description: (§4) Figure 2 The inhibitory effect of the antagonists on SDF-1α-induced cell chemotaxis and calcium mobilization in SupT1 cells The antagonists and concentrations used were labeled in each lane. (A) The inhibition of cell migration by the noted antagonists. SupT1 cells pre-treated with or without CXCR4 antagonists were seeded in the upper well and cell migrated by 2 nM SDF-1α. Migrated cells without SDF-1α were used as a negative (0%) and migrated cell induced by SDF-1α as a positive control (100%). […] SupT1 cells were treated with or without CXCR4 antagonists and activated by 50 nM SDF-1α. To directly compare the inhibitory effect of the antagonists on calcium mobilization, the vehicle background and baseline were removed using GraphPad and Origin. The data were averages of at least three independent experiments.
SupT1 cells were collected and washed using HHBS buffer (Hanks’ Balanced Salt solution supplemented with 20 mM HEPES) and incubated with 1 mM probenecid (Energy Chemical, China) and 4 μM Fluo-4 (AAT bioquest, U.S.A.) for 37°C for 30 min with vortex every 5 min. After being washed with HHBS, cells were suspended in PBS at 2 × 10^6/ml and seeded 200 μl cells and various concentrations of compounds per well in 96-well plate. Following 50 nM SDF-1α was added to each well, the fluorescence intensity was measured (Ex/Em = 496/516 nm) using EnSpire® multimode plate reader (PerkinElmer, U.S.A.).

CXCR4 [3] = biological target: T3, CXCR4; assay: SDF-1α-induced cell migration assay in SupT1 cells (transwell); type: cell-based; parameters: host or cells: SupT1 cells; details: 2 nM SDF-1α, 30 min pre-incubation, 3 h migration; for inhibition at 0.2 µM: SUP-T1, at 200 nM
Description: as §4
SupT1 cells (2 × 10^6 cells per well in 75 μl) were collected and washed using assay buffer (RPMI 1640 supplemented with 0.5% BSA) and incubated with various concentrations of tested compounds for 30 min in the upper well of the transwell-96 well plates with 5.0 µm pore polycarbonate membrane insert (Corning, U.S.A.). Then, 200 μl assay buffer containing 2 nM SDF-1α was added to the lower well and cells were allowed to migrate for 3 h. Migrated cells were measured using celltiter-96 reagent.

CXCR4 Y256A = biological target: T4, CXCR4 Y256A (Homo sapiens, UniProt P61073, Y256A); assay: Competitive binding to CXCR4 mutant Y256A (12G5, CHO cells); details: TM6, class of reduction vs wild-type CXCR4, 12G5 competition, averages of at least three independent experiments
T4 construct: expressed in transfected cells
Description: as §1, §2, §3

CXCR4 R30A = biological target: T5, CXCR4 R30A (Homo sapiens, UniProt P61073, R30A); assay: Competitive binding to CXCR4 mutant R30A (12G5, CHO cells); parameters: key to the marks not given beside the values; details: TM1, class of reduction vs wild-type CXCR4, 12G5 competition, averages of at least three independent experiments
T5 construct: expressed in transfected cells
Description: as §1, §2, §3

CXCR4 V112A = biological target: T6, CXCR4 V112A (Homo sapiens, UniProt P61073, V112A); assay: Competitive binding to CXCR4 mutant V112A (12G5, CHO cells); details: TM3, class of reduction vs wild-type CXCR4, 12G5 competition, averages of at least three independent experiments
T6 construct: expressed in transfected cells
Description: as §1, §2, §3

CXCR4 W161A = biological target: T7, CXCR4 W161A (Homo sapiens, UniProt P61073, W161A); assay: Competitive binding to CXCR4 mutant W161A (12G5, CHO cells); details: TM4, class of reduction vs wild-type CXCR4, 12G5 competition, averages of at least three independent experiments
T7 construct: expressed in transfected cells
Description: as §1, §2, §3

CXCR4 D262E = biological target: T8, CXCR4 D262E (Homo sapiens, UniProt P61073, D262E); assay: Competitive binding to CXCR4 mutant D262E (12G5, CHO cells); details: TM6, class of reduction vs wild-type CXCR4, 12G5 competition, averages of at least three independent experiments
T8 construct: expressed in transfected cells
Description: as §1, §2, §3

CXCR4 D193A = biological target: T9, CXCR4 D193A (Homo sapiens, UniProt P61073, D193A); assay: Competitive binding to CXCR4 mutant D193A (12G5, CHO cells); details: TM4, class of reduction vs wild-type CXCR4, 12G5 competition, averages of at least three independent experiments
T9 construct: expressed in transfected cells
Description: as §1, §2, §3

CXCR4 Y45A = biological target: T10, CXCR4 Y45A (Homo sapiens, UniProt P61073, Y45A); assay: Competitive binding to CXCR4 mutant Y45A (12G5, CHO cells); details: TM1, class of reduction vs wild-type CXCR4, 12G5 competition, averages of at least three independent experiments
T10 construct: expressed in transfected cells
Description: as §1, §2, §3

T1 sequence (P61073 whole entry Y255A): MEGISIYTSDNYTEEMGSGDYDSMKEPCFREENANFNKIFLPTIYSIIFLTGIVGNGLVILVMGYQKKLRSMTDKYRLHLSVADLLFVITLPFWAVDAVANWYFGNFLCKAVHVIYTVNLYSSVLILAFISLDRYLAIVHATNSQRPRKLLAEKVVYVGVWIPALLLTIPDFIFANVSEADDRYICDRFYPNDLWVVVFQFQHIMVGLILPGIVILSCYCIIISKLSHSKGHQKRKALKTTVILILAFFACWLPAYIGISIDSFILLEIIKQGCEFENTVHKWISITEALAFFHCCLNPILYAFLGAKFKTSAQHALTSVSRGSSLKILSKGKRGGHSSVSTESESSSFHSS
T10 sequence (P61073 whole entry Y45A): as the sequence (P61073 whole entry Y255A) above, with Y45A, A255Y counted along it
T5 sequence (P61073 whole entry R30A): as the sequence (P61073 whole entry Y255A) above, with R30A, A255Y counted along it
T7 sequence (P61073 whole entry W161A): as the sequence (P61073 whole entry Y255A) above, with W161A, A255Y counted along it
T6 sequence (P61073 whole entry V112A): as the sequence (P61073 whole entry Y255A) above, with V112A, A255Y counted along it
T9 sequence (P61073 whole entry D193A): as the sequence (P61073 whole entry Y255A) above, with D193A, A255Y counted along it
T4 sequence (P61073 whole entry Y256A): as the sequence (P61073 whole entry Y255A) above, with A255Y, Y256A counted along it
T2 sequence (P61073 whole entry W195A): as the sequence (P61073 whole entry Y255A) above, with W195A, A255Y counted along it
T8 sequence (P61073 whole entry D262E): as the sequence (P61073 whole entry Y255A) above, with A255Y, D262E counted along it
T3 sequence (P61073 whole entry): as the sequence (P61073 whole entry Y255A) above, with A255Y counted along it

SMILES	Competitive receptor binding activity, CXCR4 Y255A (CXCR4 Y255A)	Competitive receptor binding activity, CXCR4 W195A (CXCR4 W195A)	Competitive receptor binding activity, wild-type CXCR4 (WT) (CXCR4 [1])	Inhibition of calcium mobilization (in words) (CXCR4 [2]; at 5 nM)	inhibition at 0.2 µM (CXCR4 [3])	Competitive receptor binding activity, CXCR4 Y256A (CXCR4 Y256A)	Competitive receptor binding activity, CXCR4 R30A (CXCR4 R30A)	Competitive receptor binding activity, CXCR4 V112A (CXCR4 V112A)	Competitive receptor binding activity, CXCR4 W161A (CXCR4 W161A)	Competitive receptor binding activity, CXCR4 D262E (CXCR4 D262E)	Competitive receptor binding activity, CXCR4 D193A (CXCR4 D193A)	Competitive receptor binding activity, CXCR4 Y45A (CXCR4 Y45A)	inhibition at 0.005 µM (CXCR4 [2]; SUP-T1, at 5 nM)	inhibition at 1 µM (CXCR4 [2]; SUP-T1, at 1 μM)	inhibition at 4 µM (CXCR4 [3]; SUP-T1, at 4 μM)
c1cc(CN2CCCNCCNCCCNCC2)ccc1CN1CCCNCCNCCCNCC1 [AMD3100]	++ (10–29% reduction compared with wild-type CXCR4)	+++	+++	very weak inhibition	61%	+++	+++	+++	+++	+ (30–60% reduction compared with wild-type CXCR4)	++ (10–29% reduction compared with wild-type CXCR4)	++ (10–29% reduction compared with wild-type CXCR4)			
NCCCCN(Cc1nc2ccccc2[nH]1)[C@H]1CCCc2cccnc21 [AMD11070]	+++	++ (10–29% reduction compared with wild-type CXCR4)	+++		80%	+++	+++	+++	++ (10–29% reduction compared with wild-type CXCR4)	+++	+++	++ (10–29% reduction compared with wild-type CXCR4)	71%		
CC(C)C[C@@H](N)C(=O)NCC(=O)N[C@H](C)C(=O)N[C@H](CO)C(=O)N[C@H](Cc1c[nH]c2ccccc12)C(=O)N[C@H](Cc1c[nH]cn1)C(=O)N[C@H](CCCNC(=N)N)C(=O)N1CCC[C@@H]1C(=O)N[C@H](CC(=O)O)C(=O)N[C@H](CCCCN)C(=O)NCCCC[C@@H](NC(=O)[C@H]1CCCN1C(=O)[C@@H](CC(C)C)NC(=O)[C@H]1CCCN1C(=O)[C@@H](CCCNC(=N)N)NC(=O)[C@@H](CCCCN)NC(=O)[C@@H](CCC(N)=O)NC(=O)[C@@H](Cc1ccc(O)cc1)NC(=O)CNC(=O)[C@@H](CC(C)C)NC(=O)[C@@H](CS)NC(=O)[C@@H](CS)NC(=O)[C@@H](CCCCN)NC(=O)[C@@H](CC(=O)O)NC(=O)[C@H]1CCCN1C(=O)[C@@H](CCCNC(=N)N)NC(=O)[C@@H](Cc1c[nH]cn1)NC(=O)[C@@H](Cc1c[nH]c2ccccc12)NC(=O)[C@@H](CO)NC(=O)[C@@H](C)NC(=O)CNC(=O)[C@H](N)CC(C)C)C(=O)O [HC4319] (I: H-[dL]G[dA][dS][dW][dH][dR][dP][dD][dK][dC][dC][dL]G[dY][dQ][dK][dR][dP][dL][dP][dK]-OH / II: H-[dL]G[dA][dS][dW][dH][dR][dP][dD][dK]; amide I:22-II:C; N-terminus and C-terminus assumed)	++ (10–29% reduction compared with wild-type CXCR4)	++ (10–29% reduction compared with wild-type CXCR4)	+++			+++	+++	+++	+++	++ (10–29% reduction compared with wild-type CXCR4)	++ (10–29% reduction compared with wild-type CXCR4)	+ (30–60% reduction compared with wild-type CXCR4)		77%	56%

From article PMC10987480, “Biological and mutational analyses of CXCR4–antagonist interactions and design of new antagonistic analogs” (Bioscience Reports, 2023)
